Test results from patent US7915276B2, “Berberrubine derivatives having antifungal activities” (priority 2006, dated 2011).

What was measured:
[1] = system: Candida albicans A207 (clinical isolate); test: In vitro antifungal activity (MIC), NCCLS method; type: cell-based; details: 48 hours
Summary of the method: (§1)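 MIC read as the lowest concentration inhibiting growth after 48 hours of culture. Setup follows NCCLS: compound diluted two-fold and inoculated at 5×10^2 to 2.5×10^3 cell/mL final.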

[2] = system: Candida lusitaniae ATCC 42720; test: In vitro antifungal activity (MIC), NCCLS method; type: cell-based; details: 48 hours
Summary of the method: as §1

[3] = system: Candida tropicalis ATCC 13803; test: In vitro antifungal activity (MIC), NCCLS method; type: cell-based; details: 48 hours
Summary of the method: as §1

[4] = system: Candida albicans ATCC 10231; test: In vitro antifungal activity (MIC), NCCLS method; type: cell-based; details: 48 hours
Summary of the method: as §1

[5] = system: Aspergillus flavus ATCC 64025; test: In vitro antifungal activity (MIC), NCCLS method; type: cell-based; details: 48 hours
Summary of the method: (§2)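 According to NCCLS guidance, each compound is diluted two-fold and challenged with a fungal inoculum of 5×10^2 to 2.5×10^3 cell/mL (final). Incubation lasts 48 hours.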

[6] = system: Candida parapsilosis ATCC 34136; test: In vitro antifungal activity (MIC), NCCLS method; type: cell-based; details: Candida parapsilosis ATCC 34136; 48 hours
Summary of the method: as §1

[7] = system: Candida glabrata ATCC 48435; test: In vitro antifungal activity (MIC), NCCLS method; type: cell-based; details: Candida glabrata ATCC 48435; 48 hours
Summary of the method: as §1

[8] = system: Aspergillus fumigatus ATCC 16424; test: In vitro antifungal activity (MIC), NCCLS method; type: cell-based; details: 48 hours
Summary of the method: as §2

Candida krusei ATCC 6258 = test: In vitro antifungal activity (MIC), NCCLS method; type: cell-based; details: 48 hours
Summary of the method: as §1

[9] = system: Aspergillus terreus ATCC 46941; test: In vitro antifungal activity (MIC), NCCLS method; type: cell-based; details: 48 hours
Summary of the method: as §2

[10] = system: Mucor ramosissimus ATCC 90286; test: In vitro antifungal activity (MIC), NCCLS method; type: cell-based; details: 48 hours
Summary of the method: as §1

[11] = system: Cryptococcus neoformans ATCC 36556; test: In vitro antifungal activity (MIC), NCCLS method; type: cell-based; details: RPMI 1640 medium, 72 hours
Summary of the method: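 Broth microdilution per NCCLS: two-fold serial dilutions of test compound inoculated with fungal suspension at a final 5×10^2 to 2.5×10^3 cell/mL. Strains other than Cryptococcus neoformans were incubated 48 hours before MIC reading.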

[12] = target: T1, chitin synthase 1 of Candida albicans chs2 Δ chs 3 Δ (Candida albicans, UniProt P23316); test: In vitro enzyme assay for chitin synthase 1 of Candida albicans (enzyme 1); type: biochemical; details: relative to polyoxin D (50% inhibitory activity = value 5)
T1 construct: Crude enzyme was prepared using the Candida albicans chs2 Δ chs 3 Δ mutant; endogenous in cells; host or cells: Candida albicans chs2Δ/chs2Δ chs3Δ/chs3Δ mutant; 130,000 x g membrane pellet
T1 sequence (P23316 whole entry, stated change not applied): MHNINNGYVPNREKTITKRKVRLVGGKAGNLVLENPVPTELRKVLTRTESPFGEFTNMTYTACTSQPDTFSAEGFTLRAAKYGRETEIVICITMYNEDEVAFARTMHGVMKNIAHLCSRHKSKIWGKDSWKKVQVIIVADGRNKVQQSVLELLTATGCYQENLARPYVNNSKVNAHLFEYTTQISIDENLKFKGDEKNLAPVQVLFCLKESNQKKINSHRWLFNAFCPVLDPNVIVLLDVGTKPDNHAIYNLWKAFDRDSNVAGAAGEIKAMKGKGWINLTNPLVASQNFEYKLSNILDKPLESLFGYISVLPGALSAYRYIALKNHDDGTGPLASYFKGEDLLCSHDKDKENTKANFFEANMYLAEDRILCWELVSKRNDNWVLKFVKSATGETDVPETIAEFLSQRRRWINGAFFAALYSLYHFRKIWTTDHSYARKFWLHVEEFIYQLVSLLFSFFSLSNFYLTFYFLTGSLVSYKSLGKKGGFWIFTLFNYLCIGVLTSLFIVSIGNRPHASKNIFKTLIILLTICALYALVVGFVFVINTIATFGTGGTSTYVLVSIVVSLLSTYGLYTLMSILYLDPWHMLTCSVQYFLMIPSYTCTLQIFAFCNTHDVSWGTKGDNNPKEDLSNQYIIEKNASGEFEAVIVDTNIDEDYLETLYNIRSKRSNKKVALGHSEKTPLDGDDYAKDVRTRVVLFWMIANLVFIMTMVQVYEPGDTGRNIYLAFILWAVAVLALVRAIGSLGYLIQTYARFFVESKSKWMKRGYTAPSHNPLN
Summary of the method: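 Crude membrane enzyme from the C. albicans chs2Δ chs3Δ strain was trypsin-activated for 15 min at 30 °C. Reaction: 32 mM Tris-HCl pH 7.5, 2 mM cobalt acetate, 1.1 mM UDP-[14C]GlcNAc, 90 min at 30 °C; TCA-insoluble radioactivity counted. Scored 1–8 by relative polyoxin D concentration (5 = equal).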

[13] = target: T2, chitin synthase 2 of Saccharomyces cerevisiae ECY38-38A(pAS6) (Saccharomyces cerevisiae, UniProt P14180); test: In vitro enzyme assay for chitin synthase 2 of Saccharomyces cerevisiae (enzyme 2); type: biochemical; details: relative to polyoxin D (50% inhibitory activity = value 5)
T2 construct: made in house; host or cells: Saccharomyces cerevisiae ECY38-38A (chs1-23 chs2::LEU2 cal1/csd2) carrying plasmid pAS6, grown in galactose medium; 130,000 x g membrane pellet
T2 sequence (P14180 whole entry): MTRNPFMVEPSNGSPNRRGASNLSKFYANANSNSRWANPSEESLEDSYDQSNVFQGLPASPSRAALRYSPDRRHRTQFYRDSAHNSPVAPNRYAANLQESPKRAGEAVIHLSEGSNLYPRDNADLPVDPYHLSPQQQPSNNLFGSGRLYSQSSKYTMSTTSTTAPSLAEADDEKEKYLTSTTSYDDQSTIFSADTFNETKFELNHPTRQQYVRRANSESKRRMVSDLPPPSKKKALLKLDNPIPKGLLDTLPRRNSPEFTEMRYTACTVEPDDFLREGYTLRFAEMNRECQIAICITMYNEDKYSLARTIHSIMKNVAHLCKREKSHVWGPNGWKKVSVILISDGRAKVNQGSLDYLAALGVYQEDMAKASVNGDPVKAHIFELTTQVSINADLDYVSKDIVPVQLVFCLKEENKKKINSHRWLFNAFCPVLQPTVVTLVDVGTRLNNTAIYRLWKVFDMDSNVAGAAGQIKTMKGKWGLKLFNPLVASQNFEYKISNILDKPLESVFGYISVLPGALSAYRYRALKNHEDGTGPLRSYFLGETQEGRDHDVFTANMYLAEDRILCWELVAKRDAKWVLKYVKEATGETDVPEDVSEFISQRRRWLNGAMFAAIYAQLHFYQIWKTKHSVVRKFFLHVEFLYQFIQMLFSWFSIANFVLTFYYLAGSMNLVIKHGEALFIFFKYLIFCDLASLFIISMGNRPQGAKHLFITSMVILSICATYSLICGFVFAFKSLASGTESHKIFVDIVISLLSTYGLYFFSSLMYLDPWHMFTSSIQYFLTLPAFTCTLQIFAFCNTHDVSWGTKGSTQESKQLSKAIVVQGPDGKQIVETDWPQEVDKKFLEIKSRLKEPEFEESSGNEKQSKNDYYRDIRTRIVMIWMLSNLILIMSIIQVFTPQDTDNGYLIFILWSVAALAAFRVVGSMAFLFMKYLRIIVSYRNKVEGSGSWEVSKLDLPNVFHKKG
Summary of the method: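 Crude membrane chitin synthase 2 came from S. cerevisiae ECY38-38A(pAS6), expressing only CHS2, and was trypsin-activated (15 min, 30 °C) then trypsin-inhibited. The reaction ran in 32 mM Tris-HCl pH 7.5, 2 mM cobalt acetate, 1.1 mM UDP-[14C]-GlcNAc, 90 min at 30 °C. TCA-precipitated product was counted by scintillation; scores 1–8 reflect concentration relative to polyoxin D's 50% inhibition (score 5).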

Substance	MIC (minimum inhibitory concentration) [1]	MIC (minimum inhibitory concentration) [2]	MIC (minimum inhibitory concentration) [3]	MIC (minimum inhibitory concentration) [4]	MIC (minimum inhibitory concentration) [5]	MIC (minimum inhibitory concentration) [6]	MIC (minimum inhibitory concentration) [7]	MIC (minimum inhibitory concentration) [8]	MIC (minimum inhibitory concentration) (Candida krusei ATCC 6258)	MIC (minimum inhibitory concentration) [9]	MIC (minimum inhibitory concentration) [10]	MIC (minimum inhibitory concentration) [11]	Relative activity Enzyme 1 [12]	Relative activity Enzyme 2 [13]
13-(4-Isopropylbenzyl)-9-O-(3-hydroxypropyl)berberrubine iodide [Compound No. 21]	0.5 µg/mL	2 µg/mL	0.5 µg/mL	0.5 µg/mL	8 µg/mL	2 µg/mL	2 µg/mL	2 µg/mL	1 µg/mL	8 µg/mL	4 µg/mL	1 µg/mL	3 (Compounds having the inhibitory activity at 2-fold, 4-fold, 8-fold and 16-fold higher concentrations than that of polyoxin D were given the values of 4, 3, 2 and 1, respectively)	6 (compounds having the inhibitory activity at ½, ¼ and ⅛ lower concentrations than that of polyoxin D were given the values of 6, 7 and 8, respectively)
13-(4-tert-Butylbenzyl)-9-O-(4-tert-butylbenzyl)berberrubine chloride [Compound No. 47]	1 µg/mL	4 µg/mL	1 µg/mL	1 µg/mL	8 µg/mL	8 µg/mL	4 µg/mL	4 µg/mL	4 µg/mL	8 µg/mL	8 µg/mL	2 µg/mL	2 (Compounds having the inhibitory activity at 2-fold, 4-fold, 8-fold and 16-fold higher concentrations than that of polyoxin D were given the values of 4, 3, 2 and 1, respectively)	5 (A compound having the same inhibitory activity as that of polyoxin D at the same concentration was given the value 5)
13-(4-Isopropylbenzyl)-9-O-(4-tert-butylbenzyl)berberrubine chloride [Compound No. 57]	1 µg/mL	4 µg/mL	1 µg/mL	1 µg/mL	8 µg/mL	8 µg/mL	4 µg/mL	4 µg/mL	4 µg/mL	8 µg/mL	8 µg/mL	2 µg/mL	2 (Compounds having the inhibitory activity at 2-fold, 4-fold, 8-fold and 16-fold higher concentrations than that of polyoxin D were given the values of 4, 3, 2 and 1, respectively)	5 (A compound having the same inhibitory activity as that of polyoxin D at the same concentration was given the value 5)
13-(4-tert-Butylbenzyl)-9-O-octylberberrubine chloride [Compound No. 42]	0.25 µg/mL	0.5 µg/mL	0.125 µg/mL	0.25 µg/mL	4 µg/mL	1 µg/mL	1 µg/mL	2 µg/mL	1 µg/mL	4 µg/mL	2 µg/mL	0.5 µg/mL	3 (Compounds having the inhibitory activity at 2-fold, 4-fold, 8-fold and 16-fold higher concentrations than that of polyoxin D were given the values of 4, 3, 2 and 1, respectively)	6 (compounds having the inhibitory activity at ½, ¼ and ⅛ lower concentrations than that of polyoxin D were given the values of 6, 7 and 8, respectively)
13-(4-isopropylbenzyl)-9-O-crotylberberrubine chloride [Compound No. 56]	0.5 µg/mL	1 µg/mL	0.5 µg/mL	0.5 µg/mL	8 µg/mL	4 µg/mL	4 µg/mL	2 µg/mL	1 µg/mL	4 µg/mL	4 µg/mL	1 µg/mL	2 (Compounds having the inhibitory activity at 2-fold, 4-fold, 8-fold and 16-fold higher concentrations than that of polyoxin D were given the values of 4, 3, 2 and 1, respectively)	6 (compounds having the inhibitory activity at ½, ¼ and ⅛ lower concentrations than that of polyoxin D were given the values of 6, 7 and 8, respectively)
13-(4-Isopropylbenzyl)-9-O-allylberberrubine chloride [Compound No. 55]	1 µg/mL	2 µg/mL	1 µg/mL	1 µg/mL	8 µg/mL	4 µg/mL	8 µg/mL	8 µg/mL	2 µg/mL	8 µg/mL	4 µg/mL	2 µg/mL	3 (Compounds having the inhibitory activity at 2-fold, 4-fold, 8-fold and 16-fold higher concentrations than that of polyoxin D were given the values of 4, 3, 2 and 1, respectively)	6 (compounds having the inhibitory activity at ½, ¼ and ⅛ lower concentrations than that of polyoxin D were given the values of 6, 7 and 8, respectively)
13-(4-tert-Butylbenzyl)-9-O-(3-hydroxypropyl)berberrubine iodide [Compound No. 11]	0.5 µg/mL	2 µg/mL	0.5 µg/mL	0.5 µg/mL	8 µg/mL	2 µg/mL	2 µg/mL	2 µg/mL	1 µg/mL	8 µg/mL	4 µg/mL	1 µg/mL	4 (Compounds having the inhibitory activity at 2-fold, 4-fold, 8-fold and 16-fold higher concentrations than that of polyoxin D were given the values of 4, 3, 2 and 1, respectively)	6 (compounds having the inhibitory activity at ½, ¼ and ⅛ lower concentrations than that of polyoxin D were given the values of 6, 7 and 8, respectively)
13-(4-tert-Butylbenzyl)-9-O-allylberberrubine chloride [Compound No. 45]	1 µg/mL	2 µg/mL	1 µg/mL	1 µg/mL	8 µg/mL	4 µg/mL	8 µg/mL	8 µg/mL	2 µg/mL	8 µg/mL	4 µg/mL	2 µg/mL	2 (Compounds having the inhibitory activity at 2-fold, 4-fold, 8-fold and 16-fold higher concentrations than that of polyoxin D were given the values of 4, 3, 2 and 1, respectively)	6 (compounds having the inhibitory activity at ½, ¼ and ⅛ lower concentrations than that of polyoxin D were given the values of 6, 7 and 8, respectively)
